The record followed here is US10973912B2, “Treatment for myopathy” (Children's Medical Center Corporation, priority 2015, dated 2021).

The assay concerns ryr1b skeletal muscles. Nature of the assay: Tetanic force per cross-sectional area in larvae at 5 dpf. It is filed as in vivo, zebrafish (Danio rerio). On the procedure: Tetanic forces were measured following stimulation with 9 biphasic, 200 μs square-wave pulses at 300 Hz (WT-DMSO: 45.6±4.2 kPa, n=5; WT-NIF: 52.8±4.1 kPa, n=5; ryr1b-DMSO: 11.4±1.3 kPa, n=7; ryr1b-NIF: 25.4±4.0 kPa, n=7). Significance was determined by a one-way ANOVA (F=29.61, P<0.0001), followed by pairwise Tukey's HSD post hoc tests. […] Non-linear regression data of curves were not statistically different, as determined by an extra sum-of-squares F test (P=1.0).
Ryr1b mutants display weaker muscle contractions than wild-type clutchmates as early as 2 dpf^30. To investigate whether […] affects contractile strength in zebrafish, ryr1b mutants and unaffected controls were treated with the compound for several days. At 5 dpf, electrophysiological studies were performed with the help of Dr. Jeffrey Widrick.

Take `O=C(N/N=C/c1ccc([N+](=O)[O-])o1)c1ccc(O)cc1` [Nifuroxazide]: the “tetanic forces in treated mutants” value is given as “restored to wild-type levels”. The “tetanic force per cross-sectional area, ryr1b mutants” value (ryr1b, n=7, 9 biphasic 200 μs pulses at 300 Hz, ryr1b-DMSO 11.4±1.3, WT-DMSO 45.6±4.2) is 25.4±4.0 kPa.
